Measurements reported in ChEMBL document CHEMBL1629649, “Multiple regulatory pathways associated with high-level ciprofloxacin and multidrug resistance in Salmonella enterica serovar enteritidis: involvement of RamA and other global regulators” (2009).
In brackets after ≈: the same amount, converted by molar mass. Residues, ends and D or L forms follow the SMILES beside them. *: point of attachment. βNA = c1ccc2cc(N*)ccc2c1

What was measured:
[1] = test system: Salmonella enterica subsp. enterica serovar Enteritidis; assay: Inhibition of AcrAB-TolC efflux pump in Salmonella enterica serovar enteritidis isolate 5408 assessed as fold increase in nalidixic acid MIC relative to control
[2] = test system: Salmonella enterica subsp. enterica serovar Enteritidis; assay: Inhibition of AcrAB-TolC efflux pump in Salmonella enterica serovar enteritidis isolate 5408-cip assessed as fold increase in nalidixic acid MIC relative to control
[3] = test system: Salmonella enterica subsp. enterica serovar Enteritidis; assay: Inhibition of AcrAB-TolC efflux pump in ciprofloxacin-resistant Salmonella enterica serovar enteritidis isolate CUH48 assessed as fold increase in ciprofloxacin MIC relative to control
[4] = test system: Salmonella enterica subsp. enterica serovar Enteritidis; assay: Inhibition of AcrAB-TolC efflux pump in Salmonella enterica serovar enteritidis isolate CUH52 assessed as fold increase in ciprofloxacin MIC relative to control
[5] = test system: Salmonella enterica subsp. enterica serovar Enteritidis; assay: Inhibition of AcrAB-TolC efflux pump in Salmonella enterica serovar enteritidis isolate NCTC 13349 assessed as fold increase in ciprofloxacin MIC relative to control
[6] = test system: Salmonella enterica subsp. enterica serovar Enteritidis; assay: Inhibition of AcrAB-TolC efflux pump in Salmonella enterica serovar enteritidis isolate 54 assessed as fold increase in ciprofloxacin MIC relative to control
[7] = test system: Salmonella enterica subsp. enterica serovar Enteritidis; assay: Inhibition of AcrAB-TolC efflux pump in Salmonella enterica serovar enteritidis isolate 58 assessed as fold increase in ciprofloxacin MIC relative to controlphenylalanine-arginine-beta-naphthylamide
[8] = test system: Salmonella enterica subsp. enterica serovar Enteritidis; assay: Inhibition of AcrAB-TolC efflux pump in Salmonella enterica serovar enteritidis isolate 51 assessed as fold increase in ciprofloxacin MIC relative to control
[9] = test system: Salmonella enterica subsp. enterica serovar Enteritidis; assay: Inhibition of AcrAB-TolC efflux pump in Salmonella enterica serovar enteritidis isolate CUH60 assessed as fold increase in ciprofloxacin MIC relative to control
[10] = test system: Salmonella enterica subsp. enterica serovar Enteritidis; assay: Inhibition of AcrAB-TolC efflux pump in Salmonella enterica serovar enteritidis isolate 4931 assessed as fold increase in ciprofloxacin MIC relative to control
[11] = test system: Salmonella enterica subsp. enterica serovar Enteritidis; assay: Inhibition of AcrAB-TolC efflux pump in Salmonella enterica serovar enteritidis isolate 104 assessed as fold increase in ciprofloxacin MIC relative to control
[12] = test system: Salmonella enterica subsp. enterica serovar Enteritidis; assay: Inhibition of AcrAB-TolC efflux pump in Salmonella enterica serovar enteritidis isolate 104-cip assessed as fold increase in ciprofloxacin MIC relative to control
[13] = test system: Salmonella enterica subsp. enterica serovar Enteritidis; assay: Inhibition of AcrAB-TolC efflux pump in Salmonella enterica serovar enteritidis isolate 5408 assessed as fold increase in ciprofloxacin MIC relative to control
[14] = test system: Salmonella enterica subsp. enterica serovar Enteritidis; assay: Inhibition of AcrAB-TolC efflux pump in Salmonella enterica serovar enteritidis isolate 5408-cip assessed as fold increase in ciprofloxacin MIC relative to control
[15] = test system: Salmonella enterica subsp. enterica serovar Enteritidis; assay: Inhibition of AcrAB-TolC efflux pump in Salmonella enterica serovar enteritidis isolate 104 assessed as fold increase in tetracycline MIC relative to control
[16] = test system: Salmonella enterica subsp. enterica serovar Enteritidis; assay: Inhibition of AcrAB-TolC efflux pump in Salmonella enterica serovar enteritidis isolate 104-cip assessed as fold increase in tetracycline MIC relative to control
[17] = test system: Salmonella enterica subsp. enterica serovar Enteritidis; assay: Inhibition of AcrAB-TolC efflux pump in Salmonella enterica serovar enteritidis isolate 5408 assessed as fold increase in tetracycline MIC relative to control
[18] = test system: Salmonella enterica subsp. enterica serovar Enteritidis; assay: Inhibition of AcrAB-TolC efflux pump in Salmonella enterica serovar enteritidis isolate 5408-cip assessed as fold increase in tetracycline MIC relative to control
[19] = test system: Salmonella enterica subsp. enterica serovar Enteritidis; assay: Inhibition of AcrAB-TolC efflux pump in Salmonella enterica serovar enteritidis isolate 104 assessed as fold increase in trimethoprim-sulfamethoxazole MIC relative to control
[20] = test system: Salmonella enterica subsp. enterica serovar Enteritidis; assay: Inhibition of AcrAB-TolC efflux pump in Salmonella enterica serovar enteritidis isolate 104-cip assessed as fold increase in trimethoprim-sulfamethoxazole MIC relative to control
[21] = test system: Salmonella enterica subsp. enterica serovar Enteritidis; assay: Inhibition of AcrAB-TolC efflux pump in Salmonella enterica serovar enteritidis isolate 5408 assessed as fold increase in trimethoprim-sulfamethoxazole MIC relative to control
[22] = test system: Salmonella enterica subsp. enterica serovar Enteritidis; assay: Inhibition of AcrAB-TolC efflux pump in Salmonella enterica serovar enteritidis isolate 5408-cip assessed as fold increase in trimethoprim-sulfamethoxazole MIC relative to control
[23] = test system: Salmonella enterica subsp. enterica serovar Enteritidis; assay: Inhibition of AcrAB-TolC efflux pump in Salmonella enterica serovar enteritidis isolate 104 assessed as fold increase in ampicillin MIC relative to control
[24] = test system: Salmonella enterica subsp. enterica serovar Enteritidis; assay: Inhibition of AcrAB-TolC efflux pump in Salmonella enterica serovar enteritidis isolate 104-cip assessed as fold increase in ampicillin MIC relative to control
[25] = test system: Salmonella enterica subsp. enterica serovar Enteritidis; assay: Inhibition of AcrAB-TolC efflux pump in Salmonella enterica serovar enteritidis isolate 5408-cip assessed as fold increase in ampicillin MIC relative to control
[26] = test system: Salmonella enterica subsp. enterica serovar Enteritidis; assay: Inhibition of AcrAB-TolC efflux pump in Salmonella enterica serovar enteritidis isolate 104 assessed as fold increase in chloramphenicol MIC relative to control
[27] = test system: Salmonella enterica subsp. enterica serovar Enteritidis; assay: Inhibition of AcrAB-TolC efflux pump in Salmonella enterica serovar enteritidis isolate 5408 assessed as fold increase in ampicillin MIC relative to control
[28] = test system: Salmonella enterica subsp. enterica serovar Enteritidis; assay: Inhibition of AcrAB-TolC efflux pump in Salmonella enterica serovar enteritidis isolate 104-cip assessed as fold increase in chloramphenicol MIC relative to control
[29] = test system: Salmonella enterica subsp. enterica serovar Enteritidis; assay: Inhibition of AcrAB-TolC efflux pump in Salmonella enterica serovar enteritidis isolate 5408 assessed as fold increase in chloramphenicol MIC relative to control
[30] = test system: Salmonella enterica subsp. enterica serovar Enteritidis; assay: Inhibition of AcrAB-TolC efflux pump in Salmonella enterica serovar enteritidis isolate 5408-cip assessed as fold increase in chloramphenicol MIC relative to control
[31] = test system: Salmonella enterica subsp. enterica serovar Enteritidis; assay: Inhibition of AcrAB-TolC efflux pump in Salmonella enterica serovar enteritidis isolate 58 assessed as fold increase in nalidixic acid MIC relative to controlphenylalanine-arginine-beta-naphthylamide
[32] = test system: Salmonella enterica subsp. enterica serovar Enteritidis; assay: Inhibition of AcrAB-TolC efflux pump in Salmonella enterica serovar enteritidis isolate 51 assessed as fold increase in nalidixic acid MIC relative to control
[33] = test system: Salmonella enterica subsp. enterica serovar Enteritidis; assay: Inhibition of AcrAB-TolC efflux pump in Salmonella enterica serovar enteritidis isolate CUH60 assessed as fold increase in nalidixic acid MIC relative to control
[34] = test system: Salmonella enterica subsp. enterica serovar Enteritidis; assay: Inhibition of AcrAB-TolC efflux pump in Salmonella enterica serovar enteritidis isolate 4931 assessed as fold increase in nalidixic acid MIC relative to control
[35] = test system: Salmonella enterica subsp. enterica serovar Enteritidis; assay: Inhibition of AcrAB-TolC efflux pump in Salmonella enterica serovar enteritidis isolate 104 assessed as fold increase in nalidixic acid MIC relative to control
[36] = test system: Salmonella enterica subsp. enterica serovar Enteritidis; assay: Inhibition of AcrAB-TolC efflux pump in Salmonella enterica serovar enteritidis isolate 104-cip assessed as fold increase in nalidixic acid MIC relative to control
[37] = test system: Salmonella enterica subsp. enterica serovar Enteritidis; assay: Inhibition of AcrAB-TolC efflux pump in ciprofloxacin-resistant Salmonella enterica serovar enteritidis isolate CUH48 assessed as fold increase in nalidixic acid MIC relative to control
[38] = test system: Salmonella enterica subsp. enterica serovar Enteritidis; assay: Inhibition of AcrAB-TolC efflux pump in Salmonella enterica serovar enteritidis isolate CUH52 assessed as fold increase in nalidixic acid MIC relative to control
[39] = test system: Salmonella enterica subsp. enterica serovar Enteritidis; assay: Inhibition of AcrAB-TolC efflux pump in Salmonella enterica serovar enteritidis isolate NCTC 13349 assessed as fold increase in nalidixic acid MIC relative to control
[40] = test system: Salmonella enterica subsp. enterica serovar Enteritidis; assay: Inhibition of AcrAB-TolC efflux pump in Salmonella enterica serovar enteritidis isolate 54 assessed as fold increase in nalidixic acid MIC relative to control

Q: Which Activity [1] does the source give for `N=C(N)NCCC[C@H](NC(=O)[C@@H](N)Cc1ccccc1)C(=O)Nc1ccc2ccccc2c1` (H-Phe-Arg-βNA) here?
A: The Activity was 24 µg/mL.

Q: And the Activity [2]?
A: Its Activity is 16 µg/mL.

Q: And the MIC [3]?
A: Its MIC is 0.012 µg/mL.

Q: What about the Activity [4] of the same compound?
A: Its Activity is 0.008 µg/mL.

Q: What about the Activity [5] of the same compound?
A: Its Activity is 0.008 µg/mL.

Q: And the Activity [6]?
A: Its Activity is 0.064 µg/mL.

Q: And the Activity [7]?
A: Its Activity is 0.064 µg/mL.

Q: What about the Activity [8] of the same compound?
A: Its Activity is 0.094 µg/mL.

Q: And the Activity [9]?
A: The Activity was 0.094 µg/mL.

Q: What about the Activity [10] of the same compound?
A: The Activity was 0.064 µg/mL.

Q: What about the Activity [11] of the same compound?
A: Its Activity is 0.094 µg/mL.

Q: What about the Activity [12] of the same compound?
A: The Activity was 2 µg/mL.

Q: What about the Activity [13] of the same compound?
A: Its Activity is 0.094 µg/mL.

Q: And the Activity [14]?
A: The Activity was 2 µg/mL.

Q: And the Activity [15]?
A: Its Activity is 0.19 µg/mL.

Q: And the Activity [16]?
A: Its Activity is 3 µg/mL.

Q: And the Activity [17]?
A: The Activity was 0.19 µg/mL.

Q: What about the Activity [18] of the same compound?
A: Its Activity is 0.094 µg/mL.

Q: What about the Activity [19] of the same compound?
A: Its Activity is 0.023 µg/mL.

Q: And the Activity [20]?
A: Its Activity is 0.023 µg/mL.

Q: What about the Activity [21] of the same compound?
A: The Activity was 0.023 µg/mL.

Q: What about the Activity [22] of the same compound?
A: Its Activity is 0.032 µg/mL.

Q: And the Activity [23]?
A: The Activity was 0.75 µg/mL.

Q: What about the Activity [24] of the same compound?
A: Its Activity is 1 µg/mL.

Q: What about the Activity [25] of the same compound?
A: Its Activity is 2 µg/mL.

Q: And the Activity [26]?
A: The Activity was 0.75 µg/mL.

Q: And the Activity [27]?
A: Its Activity is 1 µg/mL.

Q: What about the Activity [28] of the same compound?
A: Its Activity is 1 µg/mL.

Q: And the Activity [29]?
A: Its Activity is 0.5 µg/mL.

Q: What about the Activity [30] of the same compound?
A: Its Activity is 0.38 µg/mL.

Q: And the Activity [31]?
A: Its Activity is 24 µg/mL.

Q: And the Activity [32]?
A: The Activity was 32 µg/mL.

Q: What about the Activity [33] of the same compound?
A: The Activity was 32 µg/mL.

Q: And the Activity [34]?
A: Its Activity is 16 µg/mL.

Q: And the Activity [35]?
A: The Activity was 24 µg/mL.

Q: What about the Activity [36] of the same compound?
A: Its Activity is 256 µg/mL.

Q: What about the MIC [37] of the same compound?
A: Its MIC is 0.5 µg/mL (≈ 1.12 µM).

Q: And the Activity [38]?
A: Its Activity is 0.75 µg/mL.

Q: And the Activity [39]?
A: Its Activity is 0.38 µg/mL.

Q: What about the Activity [40] of the same compound?
A: Its Activity is 16 µg/mL.
